# In patent publication US20240050526A1, “CATH2 DERIVATIVES FOR STIMULATING INNATE IMMUNE MEMORY” (priority 2020, published 2024):
# Ends that are not written are not given here.
# Legend:
# Type in all cases: cell-based, human
# dTHP-1 cells [1] = test: DCATH-2 training of dTHP-1 cells in the presence of pathway inhibitors; details: 1 μg/ml Pam3CSK4; for effect of inhibitor on DCATH-2 training (amplified Pam3CSK4-induced TNFα production): inhibitor 1 h before and during priming with 5 μM DCATH-2, 3 days rest; for Pam3CSK-induced TNFα production in the presence of inhibitor: reference level of FIG. 4a, means, SEM, 3 experiments
# Experimental: (§1) THP-1 cells were cultured in Iscove Modified Dulbecco Media (IMDM, Gibco) containing Glutamax-I, sodium pyruvate, 10% fetal calf serum at 37° C. and 5% CO2. For differentiation to macrophage-like cells, THP-1 cells were grown in IMDM/FCS medium containing 8 of 100 nM PMA and seeded in 96 wells (5×10^4 cells/well), 24 wells (3×10^5 cells/well) or 6 wells plates (1×10^6 cells/well) during 48 h. Subsequently, dTHP-1 were washed with pre-warmed IMDM/FCS, left overnight to rest and primed during 1 to 24 h with 2-10 μM peptides of fresh IMDM/FCS medium, washed 3 times in medium. After 3 days rest cells were stimulated with various stimuli: S. minnesota LPS (10 ng/ml), E. coli LPS (10 or 50 ng/ml), Pam3CSK4 (1 μg/ml) or Pam2CSK4 (1 μg/ml). After 24 h supernatants were collected and stored at −20° C. For inhibition, dTHP-1 cells were pre-incubated for 1 h before priming and during priming with rapamycin (10 nM), AICAR (50 nM), metformin (0.3 mM), wortmannin (1 μM), ascorbate (50 μM), SB203580 (10 μM), PD98059 (10 μM), SP600125 (10 μM), EGCG (40 μM), anacardic acid (50 μM), curcumin (10 μM), garcinol (10 μM), Bay-11-7085 (10 μM), MTA (1 mM), MM-102 (25 μM), suramin (50 μM), KN-62 (3 μM), nystatin (10 μg/ml), and chlorpromazine (10 μM).
# (§2) TNFα, IL-6, CXCL10 and CCL5 production were measured using ELISA (R&D systems) following instructions of the manufacturer.
# dTHP-1 cells [2] = test: Confocal imaging of Tamra-labelled DCATH-2 uptake by dTHP-1 cells; details: 1 h pre-incubation with inhibitor, 3 h priming with Tamra-DCATH-2
# Experimental: 3×10^5 dTHP-1 cells were seeded on 8 mm coverslips in 24 wells plates and differentiated for 48 h with 100 nM PMA in 0.5 ml medium. Wells were washed 3 times, and cells were primed for 3 h with Tamra-labelled DCATH-2 (TD) or medium. For inhibition conditions, cells were pre-incubated before priming for 1 h with 3 μM KN-62, 50 μM suramin, 10 μM chlorpromazine, or 10 μg/ml nystatin. After priming, coverslips were washed 3 times with warm medium and fixated for 30 min in 4% paraformaldehyde solution (0.1 M phosphate buffer, pH 7.4). After staining of nuclei with Hoechst (Molecular probes) for 10 min, coverslips were mounted on glass slides using ProLong glass antifade mountant (Thermofisher, P36980). Confocal images were acquired on a Leica SPE-II using the 100×HCX PLAN APO (NA=1.4-0.7) objective. Imaging was performed using a quadruple band beam splitter for the 561 nm laser. Visualization of Hoechst stained dTHP-1 cells was done with a 405 nm (100 mW) Coherent Violet Cube laser. Image analysis was done using composite images of both channels. In brief, regions of interest were set manually using DIC for segmentation. To isolate puncta from background noise, a threshold was set for the Tamra channel and intensity and area of puncta were measured partially automated using a script.
# dTHP-1 cells [3] = test: Innate immune training of dTHP-1 cells by cathelicidin peptides, cytokine ELISA after TLR agonist re-stimulation; details: priming 24 h with 10 μM peptide; 100 nM PMA dTHP-1 cells; 3 days rest; re-stimulated with 10 ng/ml Salmonella minnesota LPS
# Experimental: as §1, §2
# Extrapolating from the trained immunity experiments with human monocytes, we examined if mature cathelicidin peptides could induce trained immunity in TH P-1 cells, a human monocyte cell line. TH P-1 cells were differentiated with 100 nM or 8 nM phorbol 12-myristate 13-acetate (PMA) during 48 h washed 3 times and, after overnight rest, primed with 2-10 μM of chicken cathelicidin 2 (CATH-2), its full D-analog DCATH-2 or human cathelicidin LL-37 for 24 h. Subsequently, dTHP-1 cells were washed 3 times and re-stimulated after a 3-day rest period with TLR agonists (24 h) (FIG. 1a). […] Priming with 5 μM of its full-D-amino acid analog DCATH-2 amplified 2- to 3-fold the TNFα and IL-6 production in response to LPS stimulation. A minor response was found for priming with 10 μM LL-37, which amplified IL-6 production 1.4-fold in 100 nM differentiated cells.
Molecule,effect of inhibitor on DCATH-2 training (amplified Pam3CSK4-induced TNFα production) (dTHP-1 cells [1]),further results
"NC(=O)c1ncn([C@@H]2O[C@H](COP(=O)(O)O)[C@@H](O)[C@H]2O)c1N [AICAR, 5-aminoimidazole-4-carboxamide ribonucleotide]",did not result in a significant reduction,Pam3CSK-induced TNFα production in the presence of inhibitor (dTHP-1 cells [1]): 335 ± 89 pg/mL
CC(C)(C)c1ccc(S(=O)(=O)/C=C/C#N)cc1 [Bay-11-7085],did not impair,–
"O=C(O[C@@H]1Cc2c(O)cc(O)cc2O[C@@H]1c1cc(O)c(O)c(O)c1)c1cc(O)c(O)c(O)c1 [EGCG, epigallocatechin gallate]",abrogated,–
CN([C@@H](Cc1ccc(OS(=O)(=O)c2cccc3cnccc23)cc1)C(=O)N1CCN(c2ccccc2)CC1)S(=O)(=O)c1cccc2cnccc12 [KN-62],partially inhibited,effect of inhibitor on uptake of TAMRA-labelled DCATH-2 by dTHP-1 cells (dTHP-1 cells [2]): reduced uptake
CCC(CC)(NC(=O)C(C)C)C(=O)N[C@@H](CCCN=C(N)N)C(=O)NC1(C(=O)NC(c2ccc(F)cc2)c2ccc(F)cc2)CCCC1 [MM-102],not affected,–
COc1cccc(-c2cc(=O)c3ccccc3o2)c1N [PD58059],no effect,–
C[S+]([O-])c1ccc(-c2nc(-c3ccncc3)c(-c3ccc(F)cc3)[nH]2)cc1 (stereo not shown) [SB203580],completely blocked,–
Oc1c2ccccc2c2c3c(cccc13)N=N2 [SP600125],no effect,–
CCCCCCCCCCCCCCCc1cccc(O)c1C(=O)O [anacardic acid],abrogated,–
O=C1O[C@H]([C@@H](O)CO)C(O)=C1O [ascorbate],–,Pam3CSK-induced TNFα production in the presence of inhibitor (dTHP-1 cells [1]): 421 ± 112 pg/mL
"CN(C)CCCN1c2ccccc2Sc2ccc(Cl)cc21 [chlorpromazin, chlorpromazine]",not affected,effect of inhibitor on uptake of TAMRA-labelled DCATH-2 by dTHP-1 cells (dTHP-1 cells [2]): not affected
COc1cc(/C=C/C(=O)CC(=O)/C=C/c2ccc(O)c(OC)c2)ccc1O [curcumin],not by garcinol or curcumin,–
CN(C)C(=N)N=C(N)N [metformin],did not result in a significant reduction,Pam3CSK-induced TNFα production in the presence of inhibitor (dTHP-1 cells [1]): 387 ± 99 pg/mL
C[C@@H]1[C@H](O)[C@@H](C)/C=C/C=C/CC/C=C/C=C/C=C/C=C/C(O[C@H]2O[C@H](C)[C@@H](O)[C@H](N)[C@@H]2O)CC2O[C@](O)(CC(O)C(O)CCC(O)CC(O)CC(O)CC(=O)O[C@H]1C)CC(O)C2C(=O)O (stereo partly shown) [nystatin],strongly impaired,effect of inhibitor on uptake of TAMRA-labelled DCATH-2 by dTHP-1 cells (dTHP-1 cells [2]): reduced uptake
CO[C@H]1C[C@@H]2CC[C@@H](C)[C@@](O)(O2)C(=O)C(=O)N2CCCC[C@H]2C(=O)O[C@H]([C@H](C)C[C@@H]2CC[C@@H](O)[C@H](OC)C2)CC(=O)[C@H](C)/C=C(\C)[C@@H](O)[C@@H](OC)C(=O)[C@H](C)C[C@H](C)/C=C/C=C/C=C/1C [rapamycin],–,Pam3CSK-induced TNFα production in the presence of inhibitor (dTHP-1 cells [1]): 318 ± 45 pg/mL
Cc1ccc(C(=O)Nc2ccc(S(=O)(=O)O)c3cc(S(=O)(=O)O)cc(S(=O)(=O)O)c23)cc1NC(=O)c1cccc(NC(=O)Nc2cccc(C(=O)Nc3cc(C(=O)Nc4ccc(S(=O)(=O)O)c5cc(S(=O)(=O)O)cc(S(=O)(=O)O)c45)ccc3C)c2)c1 [suramin],completely impaired,effect of inhibitor on uptake of TAMRA-labelled DCATH-2 by dTHP-1 cells (dTHP-1 cells [2]): reduced uptake
COC[C@H]1OC(=O)c2coc3c2[C@@]1(C)C1=C(C3=O)[C@@H]2CCC(=O)[C@@]2(C)C[C@H]1OC(C)=O [wortmannin],–,Pam3CSK-induced TNFα production in the presence of inhibitor (dTHP-1 cells [1]): 354 ± 135 pg/mL
"LLGDFFRKSKEKIGKEFKRIVQRIKDFLRNLVPRTES [LL-37, human cathelicidin, reference compound]",–,amplification of IL-6 production (dTHP-1 cells [3]): 1.4 fold
"RFGRFLRKIRRFRPKVTITIQGSARF-NH2 [CATH-2, chicken cathelicidin 2 peptide]",–,amplification of IL-6 production (dTHP-1 cells [3]): 1.8 fold
